One test addresses T1, human COX-2 (Homo sapiens, UniProt P35354).
T1 construct: expressed in transfected cells; host or cells: COS cells (stably transfected)
T1 sequence (P35354 18-604): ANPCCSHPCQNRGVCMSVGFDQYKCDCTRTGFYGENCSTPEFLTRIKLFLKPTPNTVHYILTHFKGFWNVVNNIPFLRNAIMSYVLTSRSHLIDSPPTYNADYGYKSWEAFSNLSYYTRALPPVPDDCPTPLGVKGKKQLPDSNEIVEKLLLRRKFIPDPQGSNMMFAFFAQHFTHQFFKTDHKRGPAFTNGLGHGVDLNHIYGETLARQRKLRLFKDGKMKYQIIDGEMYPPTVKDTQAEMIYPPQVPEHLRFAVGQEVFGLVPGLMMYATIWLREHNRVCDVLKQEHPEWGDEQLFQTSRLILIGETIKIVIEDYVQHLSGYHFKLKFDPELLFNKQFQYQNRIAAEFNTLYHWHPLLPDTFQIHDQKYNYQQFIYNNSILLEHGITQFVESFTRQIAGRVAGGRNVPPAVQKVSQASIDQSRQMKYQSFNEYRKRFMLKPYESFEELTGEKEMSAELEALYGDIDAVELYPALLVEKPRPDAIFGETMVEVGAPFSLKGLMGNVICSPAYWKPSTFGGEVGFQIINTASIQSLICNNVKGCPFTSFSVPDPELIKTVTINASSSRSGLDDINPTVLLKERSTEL
Nature of the test: Inhibition of PGE2 release in COS cells stably transfected with human COX-2. It is filed as cell-based. The conditions noted are these: COS cells transfected with human COX-2, 30 μM arachidonic acid.

A further test has as its target T2, human COX-1 (Homo sapiens, UniProt P23219).
T2 construct: expressed in transfected cells; host or cells: COS cells (stably transfected)
Kind of test: Inhibition of PGE2 release in COS cells stably transfected with human COX-1. The conditions noted are these: COS cells transfected with human COX-1, 30 μM arachidonic acid. It is filed as cell-based.

In another test the target is T3, microsomal h-COX2 (Homo sapiens, UniProt P35354).
T3 construct: made in house; host or cells: baculovirus infected SF9 cells (microsomal preparation)
T3 sequence (P35354 18-604): T1 sequence (P35354 18-604)
Kind of test: Microsomal assay, h-COX2 preparation from baculovirus infected SF9 cells. Type of test: biochemical. As to conditions: stated in text under the microsomal assay; read-out: IC50 values for inhibition of COX-2.

One may read the IC50 as the concentration needed to halve the response being measured.

T2 sequence (P23219 24-599): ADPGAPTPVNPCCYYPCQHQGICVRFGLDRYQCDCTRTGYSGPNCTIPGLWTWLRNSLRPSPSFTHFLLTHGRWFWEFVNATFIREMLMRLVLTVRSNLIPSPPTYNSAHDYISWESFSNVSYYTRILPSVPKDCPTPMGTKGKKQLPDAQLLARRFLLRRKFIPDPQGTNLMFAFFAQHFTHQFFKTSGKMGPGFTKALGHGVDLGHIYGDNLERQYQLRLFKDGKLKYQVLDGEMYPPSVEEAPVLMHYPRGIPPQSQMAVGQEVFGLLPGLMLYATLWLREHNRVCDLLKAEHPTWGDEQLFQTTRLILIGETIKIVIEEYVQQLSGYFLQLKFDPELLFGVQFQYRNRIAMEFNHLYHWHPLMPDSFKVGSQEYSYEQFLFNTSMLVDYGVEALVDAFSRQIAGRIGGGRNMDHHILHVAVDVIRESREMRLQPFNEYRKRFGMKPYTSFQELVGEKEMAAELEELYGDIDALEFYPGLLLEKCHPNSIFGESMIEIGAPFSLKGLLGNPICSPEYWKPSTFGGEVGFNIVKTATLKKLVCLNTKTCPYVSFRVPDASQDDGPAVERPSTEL
Protocol for human COX-1: 24 Hours prior to experiment, COS cells were transferred from the 175 cm^2 flasks in which they were grown, onto 24-well cell culture plates using the following procedure. The incubation medium (Dulbecco's modified eagles medium (DMEM) supplemented with heat-inactivated foetal calf serum (10% v/v), penicillin (100 IU/ml), streptomycin (100 μg/ml) and genebcin (600 μg/ml)) was removed from a flask of confluent cells (1 flask at confluency contains approximately lx107 cells). 10 mI of phosphate buffered saline (PBS) was added to the flask to wash the cells. Having discarded the PBS, cells were then rinsed in 10 ml trypsin for 20 seconds, after which the trypsin was removed and the flask placed in an incubator (37°) for 1-2 minutes unbil cells became detached from the flask. The flask was then removed from the incubator and cells resuspended in 10 ml of fresh incubation medium. The contents of the flask was transferred to a 250 ml sterile container and the volume of incubation medium subsequently made up to 100 ml. […] If more than 1 flask of cells were required, the cells from the individual flasks were combined before being dispensed into the 24-well plates.
Following the overnight incubation, the incubation medium was completely removed from the 24-well cell culture plates and replaced with 250 μl fresh DMEM (37° C.). The test compounds were made up to 250× the required test concentration in DMSO and were added to the wells in a volume of 1 μl. […] Plates were then incubated for a further 15 minutes, after which the incubation medium was removed from each well of the plates and stored at −20° C., prior to determination of prostaglandin E2 (PGE2) levels using enzyme immunoassay. […] The selectivity ratio of inhibition of COX-1 versus COX-2 was calculated by comparing respective IC50 values.
Protocol for microsomal h-COX2: Inhibitory activity against microsomal h-COX2 was assessed against a microsomal preparation from baculovirus infected SF9 cells. An aliquot of microsomal preparation was thawed slowly on ice and a 1/40,000 dilution prepared from it into the assay buffer (sterile water, degassed with argon containing 100 mM HEPES (pH 7.4), 10 mM EDTA (pH7.4), 1 mM phenol, 1 mM reduced glutathione, 20 mg/ml gelatin and 0.001 mM Hematin). Once diluted the enzyme solution was then sonicated for 5 seconds (Branson sonicator, setting 4, 1 cm tip) to ensure a homogeneous suspension. […] Plates were then mixed and incubated at room temperature for 1 hour. Following the incubation period, 40 μl of 0.5 μM arachidonic acid was added to each well to give a final concentration of 0.1 μM. Plates were then mixed and incubated for exactly 10 minutes (room temperature) prior to addition of 25 μl 1M HCl (hydrochloric acid) to each well to stop the reaction. 25 μl of 1M NaOH (sodium hydroxide) was then added to each well to neutralise the solution prior to determination of PGE2 levels by enzyme immunoassay (EIA).

Take `CS(=O)(=O)c1ccc(-c2cc(C(F)(F)F)nc(Oc3ccc(F)cc3)n2)cc1` [Example 1.1, 2-(4-Fluorophenoxy)-4-[4-(methylsulfonyl)phenyl]-6-(tiifluoromethyl)pyrimidine]: the IC50 at human COX-2 is < 1 nM; on human COX-1 it was 81300 nM. In the case of `CS(=O)(=O)c1ccc(-c2cc(C(F)(F)F)cc(NC3CCCCC3)n2)cc1` [Example 3.1, N-cyclohexyl-4-(trifluoromethyl)-6-[4-(methylsulfonyl)phenyl]pyridine-2-amine], the IC50 on microsomal h-COX2 is ≤ 500 nM.

On to `CCOc1ccc(-c2nn3ncccc3c2-c2ccc(S(C)(=O)=O)cc2)cc1` [2.3(ii), 2-(4-Ethoxy-phenyl)-3-(4-methanesulfonyl-phenyl)-pyrazolo[1,5-b]pyridazine], for which the IC50 against human COX-2 is 3 nM.

As for `COc1ccc(Oc2nc(-c3ccc(S(C)(=O)=O)cc3)cc(C(F)(F)F)n2)cc1` [Example 1.3], the values for the IC50 against human COX-2 and against human COX-1 were 4 nM and 2920 nM, respectively.

With `CS(=O)(=O)c1ccc(-c2c(-c3ccc(F)cc3)nn3nc(S(C)(=O)=O)ccc23)cc1` [2.4(iii), 2-(4-Fluoro-phenyl)-6-methanesulfonyl-3-(4-methanesulfonyl-phenyl)-pyrazolo[1,5-b]pyridazine], on human COX-2, inhibition was half-maximal at 370 nM (IC50).

For `COc1ccc(-c2nn3ncccc3c2-c2ccc(S(C)(=O)=O)cc2)cc1` [2.2(ii), 3-(4-Methanesulfonyl-phenyl)-2-(4-methoxy-phenyl)-pyrazolo[1,5-b]pyridazine], on human COX-1, the midpoint of inhibition, the IC50, lay at 3880 nM. `CCOc1ccc(-c2nn3ncccc3c2-c2ccc(S(N)(=O)=O)cc2)cc1` [2.6(iv), 4-[2-(4-Ethoxy-phenyl)-pyrazolo[1,5-b]pyridazin-3-yl]-benzenesulfonamide]: the IC50 stood at 0.44 nM at human COX-2 and 3830 nM against human COX-1. On to `Cc1cc(NCc2cnn(C)c2)nc(-c2ccc(S(C)(=O)=O)cc2)c1` [Example 3.3, 4-methyl-N-[(1-methyl-1H-pyrazol-4-yl)methyl]-6-[4-(methylsulfonyl)phenyl]-2-pyridinamine], for which the IC50 at microsomal h-COX2 was ≤ 500 nM.

For the origin of these results see patent US20070142411A1, “Use of cyclooxygenase-2 selective inhibitors for the treatment of schizophrenic disorders” (priority 2003, published 2007).
